Patent US20190374515A1, “THERAPEUTIC DRUG OR PROPHYLACTIC DRUG FOR DIABETIC NEPHROPATHY” (TEIJIN PHARMA LIMITED, priority 2016, published 2019)

Key:
[1] = test system: Zucker Diabetic Fatty (ZDF) rats; test: Urinary albumin excretion in ZDF rats, 13-week oral dosing (Example 1); format: in vivo, rat; conditions: for Cumulative urinary albumin excretion (AUC0-12 wks): initial administration until 12th week
Procedure: (§1) The plasma uric acid level was measured by LC-MS/MS. Compared to the Control group which had normal blood glucose levels, the urinary albumin excretion in the Vehicle group which consisted of ZDF rats that had type II diabetes and had been administered the solvent were increased in time-dependent manner.

[2] = Plasma uric acid concentration in ZDF rats by LC-MS/MS (Example 1); format: in vivo, rat
Procedure: as §1

[3] = test system: ZDF rats; test: Urinary albumin excretion in ZDF rats, 12-week oral dosing (Example 2); conditions: 12th week; for Urinary albumin excretion: mean ± SE
Procedure: (§2) Podocalyxyn was used as a marker for glomerular damage and Kidney Injury Marker-1 (KIM-1) was used as a marker for renal tubular damage, with a Podocalyxin rELISA Kit (EXOCELL) and a Rat TIM-1/KIM-1/HAVCR Qauntikine ELISA Kit (R&D Systems), respectively.
(§3) As a control group, ZDF rats were orally administered a solvent (0.5% methyl cellulose) once per day for 12 weeks (Vehicle group). Urine was collected for 24 hours at the 12th week of administration, and the urinary albumin concentration, urine Podocalyxyn concentration, urine KIM-1 concentration and urinary volume were measured.

[4] = test system: ZDF rats; test: Urinary KIM-1 excretion (renal tubular damage marker) in ZDF rats (Example 2); conditions: 12th week; for Urinary KIM-1 excretion: mean ± SE
Procedure: as §2, §3

[5] = test system: ZDF rats; test: Urinary Podocalyxyn excretion (glomerular damage marker) in ZDF rats (Example 2); conditions: 12th week; for Urinary Podocalyxyn excretion: mean ± SE
Procedure: as §2, §3

## Cc1nc(-c2ccc(OCC(C)C)c(-n3cnnn3)c2)sc1C(=O)O [Compound 1, 4-Methyl-2-[4-(2-methylpropoxy)-3-(1H-1,2,3,4-tetrazol-1-yl)phenyl]-1,3-thiazole-5-carboxylic acid]
[1]; 1 mg/kg oral once per day, mean ± SE
  Cumulative urinary albumin excretion (AUC0-12 wks): 294.8 ± 38.1
[1]; 1 mg/kg oral once per day, week 0 (before administration), mean ± SE
  Urinary albumin excretion: 3.37 ± 0.83 µg/day
[1]; 1 mg/kg oral once per day, week 2, mean ± SE
  Urinary albumin excretion: 4.78 ± 0.87 µg/day
[1]; 1 mg/kg oral once per day, week 4, mean ± SE
  Urinary albumin excretion: 8.90 ± 1.63 µg/day
[1]; 1 mg/kg oral once per day, week 6, mean ± SE
  Urinary albumin excretion: 21.96 ± 3.79 µg/day
[1]; 1 mg/kg oral once per day, week 8, mean ± SE
  Urinary albumin excretion: 38.74 ± 5.64 µg/day
[1]; 1 mg/kg oral once per day, week 10, mean ± SE
  Urinary albumin excretion: 41.33 ± 5.47 µg/day
[1]; 1 mg/kg oral once per day, week 12, mean ± SE
  Urinary albumin excretion: 60.00 ± 8.58 µg/day
[1]; 3 mg/kg oral once per day, mean ± SE
  Cumulative urinary albumin excretion (AUC0-12 wks): 279.4 ± 27.1
[1]; 3 mg/kg oral once per day, week 0 (before administration), mean ± SE
  Urinary albumin excretion: 3.91 ± 1.06 µg/day
[1]; 3 mg/kg oral once per day, week 2, mean ± SE
  Urinary albumin excretion: 7.64 ± 1.66 µg/day
[1]; 3 mg/kg oral once per day, week 4, mean ± SE
  Urinary albumin excretion: 14.43 ± 2.90 µg/day
[1]; 3 mg/kg oral once per day, week 6, mean ± SE
  Urinary albumin excretion: 21.97 ± 1.75 µg/day
[1]; 3 mg/kg oral once per day, week 8, mean ± SE
  Urinary albumin excretion: 23.38 ± 3.09 µg/day
[1]; 3 mg/kg oral once per day, week 10, mean ± SE
  Urinary albumin excretion: 37.37 ± 4.11 µg/day
[1]; 3 mg/kg oral once per day, week 12, mean ± SE
  Urinary albumin excretion: 65.88 ± 8.33 µg/day
[1]; at both the 1 mg/kg and 3 mg/kg doses
  Urinary albumin excretion compared to the Vehicle group (in words): significantly reduced
[2]; 1 mg/kg and 3 mg/kg doses
  Plasma uric acid concentration compared to the Vehicle group (in words): significantly decreased
[2]; 3 mg/kg oral once per day, 24 hours after administration at 13th week, mean ± SE
  Plasma uric acid concentration: 0.18 ± 0.01 mg/dL
[3]; 0.1 mg/kg oral once per day
  Urinary albumin excretion: 96.50 ± 9.61 µg/day
[3]; 0.3 mg/kg and 1 mg/kg doses
  Urinary albumin excretion compared to the Vehicle group (in words): significantly reduced
[3]; 0.3 mg/kg oral once per day
  Urinary albumin excretion: 70.18 ± 60.94 µg/day
[4]; 0.1 mg/kg oral once per day
  Urinary KIM-1 excretion: 64.3 ± 22.1 ng/day
[4]; 0.3 mg/kg oral once per day
  Urinary KIM-1 excretion: 22.3 ± 2.9 ng/day
[4]; 1 mg/kg oral once per day
  Urinary KIM-1 excretion: 18.1 ± 2.0 ng/day
[4]
  KIM-1, marker for renal tubular damage (in words): reduced
[5]; 0.1 mg/kg oral once per day
  Urinary Podocalyxyn excretion: 32.5 ± 3.3 µg/day
[5]; 0.3 mg/kg oral once per day
  Urinary Podocalyxyn excretion: 22.3 ± 2.9 µg/day
[5]; 1 mg/kg oral once per day
  Urinary Podocalyxyn excretion: 20.6 ± 4.4 µg/day
[5]
  Podocalyxyn, marker for glomerular damage (in words): reduced
